Source: patent US20240108740A1, “THERAPEUTIC COMPOSITIONS INCLUDING SPN10 AND USES THEREOF” (Stealth BioTherapeutics Inc., priority 2022, published 2024)
Residues, ends and D or L forms follow the SMILES beside them.

How the values were obtained:
Sprague-Dawley rats [1] = assay: Example 38: acute renal injury caused by unilateral ureteral obstruction (UUO); type: in vivo, rat
Description: Sprague-Dawley rats will undergo unilateral ureteral ligation with a 4-0 silk suture through a midline abdominal incision under sterile conditions. Ureteral obstruction will be carried out by ligating the lower end of the left ureter, just above the ureterovesical junction. Peptide conjugates (1 mg/kg or 3 mg/kg; n=16); aromatic-cationic peptides (an equivalent molar dose of aromatic-cationic peptide based on the concentration of the aromatic-cationic peptide administered in the peptide conjugate treatment group); SPN10(s) (an equivalent molar dose of SPN10 based on the concentration of SPN10 administered in the peptide conjugate treatment group); SPN10(s) in combination with aromatic-cationic peptides (e.g., an equivalent molar dose of SPN10 based on the concentration of SPN10 administered in the peptide conjugate treatment group and an equivalent molar dose of aromatic-cationic peptide based on the concentration of aromatic-cationic peptide administered in the peptide conjugate treatment group); or control vehicle (n=16) will be administered intraperitoneally, one day prior to UUO and continuing for 14 days following UUO.
Renal Histology: Trichrome sections of paraffin embedded specimens will be examined by a board-certified pathologist (SVS, renal pathology specialist), and fibrosis scored on a scale of 0—+++.
Immunohistochemical Analysis: Immunohistochemical staining for macrophages will be carried out using a monoclonal antibody to ED-1 as previously described. Macrophages will be counted in 10 high-power fields (×400) by two independent investigators in a blinded fashion. Apoptosis will be measured by TUNEL assay as described in Example 37. The presence of fibroblasts will be examined using immunohistochemistry, as described above, using the DAKO #S100-A4 antibody (1:100 dilution). Antigen will be retrieved by incubating cells with Proteinase K for 20 minutes. The remaining immunoperoxidase protocol will be carried out according to routine procedures.
It is expected that S100-A4 staining will be present in spindle-shaped interstitial cells and round, inflammatory cells. Only spindle-shaped cells will be quantified. Staining for 8-OH dG will be done using Proteinase K for antigen retrieval and an antibody provided by the Japan Institute Control of Aging at a dilution of 1:200-1:500.
Polymerase Chain Reaction Analysis: Renal expression of heme oxygenase-1 (HO-1) will be measured by RT-PCR according to the following: Rat kidneys will be harvested and stored at −80° C. until use. Total RNA will be extracted using the Trizol (R)-Chloroform extraction procedure, and mRNA will be purified using the Oligotex mRNA extraction kit (Qiagen, Valencia, California, U.S.A.) according to manufacturer instructions. mRNA concentration and purity will be determined by measuring absorbance at 260 nm. RT-PCR will be performed using Qiagen One-step PCR kit (Qiagen, Valencia, California, U.S.A.) and an automated thermal cycler (ThermoHybrid, PX2). Thermal cycling will be carried out as follows: initial activation step for 15 minutes at 95° C. followed by 35 cycles of denaturation for 45 seconds at 94° C., annealing for 30 seconds at 60° C., extension for 60 seconds at 72° C. Amplification products will be separated on a 2% agarose gel electrophoresis, visualized by ethidium bromide staining, and quantified using Image J densitometric analysis software. GAPDH will be used as an internal control.

Sprague-Dawley rats [2] = assay: Example 47: wound contraction after burn injury; type: in vivo, rat; conditions: compared to burn control subjects
Description: Sprague-Dawley rats (male, 300-350 g) will be pre-treated with (1 mg) peptide conjugates administered i.p. (approx. 3 mg/kg) 1 hour prior to burn (65° C. water, 25 seconds, lower back), followed by the topical application of peptide conjugates to the wound (1 mg), and 1 mg peptide conjugates administered i.p. once every 12 hours for 72 hours. Wounds will be observed for up to 3 weeks post-burn. A similar treatment regimen is followed for the groups treated with aromatic-cationic peptides (an equivalent molar dose of aromatic-cationic peptide based on the concentration of the aromatic-cationic peptide administered in the peptide conjugate treatment group), SPN10(s) (an equivalent molar dose of SPN10 based on the concentration of SPN10 administered in the peptide conjugate treatment group), or SPN10(s) in combination with aromatic-cationic peptides (e.g., an equivalent molar dose of SPN10 based on the concentration of SPN10 administered in the peptide conjugate treatment group and an equivalent molar dose of aromatic-cationic peptide based on the concentration of aromatic-cationic peptide administered in the peptide conjugate treatment group).

neuronal N2A cells = assay: Example 21: intracellular ROS and cell survival after t-BHP; type: cell-based; conditions: t-BHP 0.5 or 1 mM, 40 min; then 4 hours
Description: Cells will be washed twice and incubated in medium alone or medium containing varying concentrations of peptide conjugates, aromatic-cationic peptides or SPN10(s) with or without aromatic-cationic peptides for 4 hours. Intracellular ROS will be measured using carboxy-H2DCFDA (Molecular Probes, Portland, OR, U.S.A.). Cell death will be measured using an MTS cell proliferation assay (Promega, Madison, WI).

In the case of `N=C(N)NCCC[C@H](NC(=O)[C@@H](N)Cc1c[nH]c2ccccc12)C(=O)N[C@@H](Cc1c[nH]c2ccccc12)C(=O)N[C@@H](CCCCN)C(N)=O` [SPN10, H-L-Trp-L-Arg-L-Trp-L-Lys-NH2] (H-WRWK-NH2), the “tubular cell proliferation at the 1 mg/kg dose” value (Sprague-Dawley rats [1]; 1 mg/kg) is reported as “decreased”, the “fibroblast infiltration in obstructed kidneys (FSP-1)” value (Sprague-Dawley rats [1]; 1 mg/kg (conjugate) or equivalent molar dose) is reported as “significantly decrease the amount of fibroblast infiltration” and the “tubular apoptosis in obstructed kidneys” value (Sprague-Dawley rats [1]; 1 mg/kg (conjugate) or equivalent molar dose, 2 weeks of UUO) is reported as “significantly decrease tubular apoptosis”. For the same compound, the “macrophage infiltration in obstructed kidneys” value (Sprague-Dawley rats [1]; 1 mg/kg or 3 mg/kg (conjugate) or equivalent molar dose) was “significantly decrease macrophage infiltration”, the “tubular cell proliferation at the 3 mg/kg dose” value (Sprague-Dawley rats [1]; 3 mg/kg) was “further decreased” and the “trichrome staining (fibrosis score), cortex of obstructed kidney” value (Sprague-Dawley rats [1]; 14 days UUO) was 0-trace. The “trichrome staining (fibrosis score), medulla of obstructed kidney” value (Sprague-Dawley rats [1]; 14 days UUO) was “tr—1+”, the “HO-1 expression in the obstructed kidney” value (Sprague-Dawley rats [1]; RT-PCR) was “decrease HO-1 expression” and the medullary fibrosis (Sprague-Dawley rats [1]; rat, in vivo) was “decrease medullary fibrosis”. The “number of 8-OH dG positive cells” value (Sprague-Dawley rats [1]; rat, in vivo) was “significantly reduced”, the “renal tubular proliferation in obstructed kidneys (PCNA)” value (Sprague-Dawley rats [1]; rat, in vivo) was “significant decrease in renal tubular proliferation” and the “rate of wound contraction” value (Sprague-Dawley rats [2]) was “slower rate of wound contraction”. For the same compound, the “cell survival (MTS)” value (neuronal N2A cells) was “increase cell survival” and the “intracellular ROS (carboxy-H2DCFDA)” value (neuronal N2A cells) was “dose-dependently reduce intracellular ROS”.
